We go through 4 compounds from patent US20090088329A1, “MULTICOMPONENT PROTEIN MICROARRAYS” (priority 2002, published 2009).

One assay deals with urease (Canavalia ensiformis, UniProt P07374). As to conditions: cited from earlier work.
Assay [1] addresses T1, Urease (type IX from Jack Beans) (Canavalia ensiformis, UniProt P07374).
T1 construct: purchased Sigma (St. Louis, Mo.) type IX
The assay can be described thus: biochemical. Type of assay: biochemical. Particulars: for Km / kcat: Urease/FD; for kcat: pH 5.1; for Ki: 20 mM urea. Here is the method: Preparation of Spotting Solutions: GOx and HRP were dissolved at concentration of 0.4 mg.mL^−1 (250 units.mg^−1) and 0.01 mg.mL^−1 (1000 units.mg^−1), respectively, in 50 mM sodium phosphate buffer, pH 7.4 to form the protein stock solutions. The Amplex Red reagent was made up to a stock concentration of 10 mM. Urease and fluorescein dextran were dissolved at concentrations of 2 mg.mL^−1 (35,400 units.g^−1) and 25 μM, respectively, in 50 mM Tris buffer containing 50 mM NaCl, pH 8 to form their respective stock solutions. GOx/HRP assay samples were prepared to a total volume of 50 μL by mixing 3 μL of each of the GOx and HRP stock solutions, 39 μL of sodium phosphate buffer and 5 μL of the Amplex Red dye solution. Negative and blank control samples were prepared in the same way except that phosphate buffer replaced the missing reagent. Positive control samples contained GOx and HRP as well as 15 μL of 100 μM D-glucose (in buffer) and only 24 μL of buffer. […] Similarly, the blank and positive control samples replaced the missing reagents with Tris buffer while the enzyme selectivity control was obtained by replacing urease with AChE (0.01 mg.mL^−1) in Tris buffer.
Enzyme Assays All enzyme assays and inhibition studies were performed in 96 well plates using a TECAN Safire absorbance/fluorescence platereader operated in fluorescence mode, or on the microarray using time-dependent fluorescence intensity measurements. The enzymatic activity of free and entrapped GOx in 96 well plates was measured by adding 50 μL of a solution containing varying concentrations of glucose to the microtiter well and monitoring of the fluorescence emission at 590 nm for 20 minutes (in solution) or 45 minutes (for entrapped GOx) with excitation at 573 nm. For microarrays, 20 μL of a glucose solution was added to the top of the array, left for 20 seconds and then removed by gently blowing air over the surface, followed by monitoring of fluorescence emission over time. […] Images were acquired before the addition of glucose and then every 30 seconds for 30 minutes after the introduction of glucose using a 30 second integration time per image. For urease, activity and inhibition were measured by adding 100 μL of a solution containing a constant amount of urea (20 mM) in the presence of varying amounts of thiourea (0-100 mM) to the microtiter well and the fluorescence emission of the fluorescein dextran was monitored at 520 nm for 15 minutes (solution) or 45 minutes (entrapped). Microarrays containing urease and fluorescein dextran were first imaged after washing with distilled deionized water (ddH2O, pH 5.1) to provide a constant baseline intensity response. Following this, 20 μL of a urea/thiourea solution was added to the top of the array, which was then covered with a coverslip to minimize solvent evaporation. The emission intensity of fluorescein dextran was measured every 20 seconds for 10 minutes using a 10 second integration time per image following the addition of the urea solution to the array. All samples were tested within 24 hours of being prepared.
For both enzymes studied the initial rate of change in fluorescence intensity was converted to a change in product concentration with time using calibration curves relating the emission intensity of fluorescein to the concentration of ammonium carbonate (for urease) or hydrogen peroxide (for GOx). The Michaelis constants (KM) and catalytic rate constants (kcat) for the enzymes were calculated by generating either double reciprocal (Lineweaver-Burk) plots relating (initial rate of product formation)^−1 to (substrate concentration)^−1 or Hanes-Wolff plots, and fitting these to a linear model. Inhibition constants (KI) for urease were calculated by assessing the changes in the initial rate values for the enzyme in the presence of varying levels of inhibitor, according to the equation: […]

Assay [2] addresses rhodamine-labelled calmodulin (CaM)/rhodamine-labelled melittin complex (Homo sapiens, UniProt P0DP23). The assay is described as follows: Calmodulin-melittin sol-gel microarray, rhodamine self-quenching fluorescence. In kind it is binding. Particulars: for effect on CaM-melittin complex / fluorescence intensity: addition to array, 20:1 molar ratio to CaM for guanidine hydrochloride. The text has this:
A third system involving protein-peptide interactions consisted of rhodamine-labelled calmodulin (CaM) and rhodamine-labelled mellitin, and was based on a slightly different fluorescence-based screening method utilizing these same biomolecules entrapped in sol-gel derived monoliths. In the absence of antagonists or denaturants (such as guanidine hydrochloride), these two species exist in a complex that brings the two rhodamine labels into close proximity, resulting in self-quenching and thus a low fluorescence signal.
Another example of a sol-gel derived microarray involving a protein-peptide interaction has been developed consisting of rhodamine-labelled calmodulin (CaM) and rhodamine-labelled melittin co-entrapped in a sodium silicate derived sol-gel. In the absence of antagonists, these two species exist in a complex that brings the two rhodamine labels into close proximity, resulting in a self-quenching dimer and thus a low fluorescence signal.
Columns 1 & 5 contain the protein-protein interaction between CaM and Mellitin. Both of which are labelled with rhodamine. Columns 2 & 4 are blank and contain only buffer. Column 3 contains CaM—Rhodamine alone and acts as a positive control. Upon addition of GdHCl (2M) to the top of the array and imaging every 20 s, the CaM-Mel columns increased in fluorescence over 2-fold (Panel B), while the positive control increased slightly initially but reached a relatively low steady-state value quickly (see graph, FIG. 7)

[3] abbreviates: entrapped enzyme in platereader.

Molecules are shown by their SMILES. Where a name gives a salt, the structure may show the parent alone.

T1 sequence (P07374 whole entry, looked up): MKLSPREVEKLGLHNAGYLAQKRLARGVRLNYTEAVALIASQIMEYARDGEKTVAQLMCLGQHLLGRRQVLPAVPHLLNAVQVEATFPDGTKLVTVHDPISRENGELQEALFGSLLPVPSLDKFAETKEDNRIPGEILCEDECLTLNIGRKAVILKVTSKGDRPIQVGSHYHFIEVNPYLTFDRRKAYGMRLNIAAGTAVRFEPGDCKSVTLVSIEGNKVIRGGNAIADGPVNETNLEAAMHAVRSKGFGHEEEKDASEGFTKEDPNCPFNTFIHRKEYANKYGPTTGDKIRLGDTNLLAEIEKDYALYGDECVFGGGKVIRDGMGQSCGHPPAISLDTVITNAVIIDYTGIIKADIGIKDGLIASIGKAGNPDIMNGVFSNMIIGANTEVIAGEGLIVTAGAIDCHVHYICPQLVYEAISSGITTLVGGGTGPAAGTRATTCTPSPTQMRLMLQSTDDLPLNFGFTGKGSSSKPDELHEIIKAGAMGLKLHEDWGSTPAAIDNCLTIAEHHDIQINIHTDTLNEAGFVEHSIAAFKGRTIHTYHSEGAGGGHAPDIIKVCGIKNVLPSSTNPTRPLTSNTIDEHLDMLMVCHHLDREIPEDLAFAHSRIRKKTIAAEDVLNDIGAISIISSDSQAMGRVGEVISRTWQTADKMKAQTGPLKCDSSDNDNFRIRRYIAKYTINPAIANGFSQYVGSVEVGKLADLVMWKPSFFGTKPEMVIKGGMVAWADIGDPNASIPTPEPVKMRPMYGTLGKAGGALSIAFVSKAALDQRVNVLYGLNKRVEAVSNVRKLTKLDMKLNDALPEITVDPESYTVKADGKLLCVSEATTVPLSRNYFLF
urease, sequence (P07374 whole entry, looked up): as above

As to `NC(N)=O` [urea], the Km on urease (urease, literature) was 2900 µM; in assay [1] (setting [3]), 2350 ± 30 µM; in assay [1] (sol-gel microarray), 1900 ± 100 µM; in assay [1] (solution, platereader) it was 1300 ± 200 µM. The kcat in assay [1] (setting [3]) amounted to 1.33 ± 0.02 s⁻¹; in assay [1] (sol-gel microarray), 1.1 ± 0.1 s⁻¹; in assay [1] (solution, platereader), 78 ± 2 s⁻¹. In assay [1] (urease, entrapped vs solution), the “kcat of entrapped protein lower than in solution” value is given as “up to 70 fold”.
As to `N=C(N)N` [guanidine hydrochloride], the “increase in fluorescence of CaM-Mel columns” value in assay [2] (GdHCl 2M added to top of array, imaging every 20 s) is reported as “over 2 fold”. In assay [2], the “effect on CaM-melittin complex / fluorescence intensity” value is recorded as “the complex was dissociated”.
Consider `N=C(N)c1ccccc1` [benzamidine], for which the “effect on CaM-melittin complex / fluorescence intensity” value in assay [2] is on record as “no changes in intensity above that obtained for CaM alone”.
Take `NC(N)=S` [thiourea]: the inhibition constant (Ki) at urease (urease in solution, literature range, different pH values (5.5 to 8)) is 48 to 85 mM; in assay [1] (urease entrapped in bulk sodium silicate glass, platereader) it was 54 ± 2 mM; in assay [1] (urease sol-gel microarray) it was 62 ± 7 mM.
